# Laboratory results published in ChEMBL document CHEMBL2385066, “Cationic porphyrin-quinoxaline conjugate as a photochemically triggered novel cytotoxic agent” (Bioorg Med Chem Lett, 2013).
# Activity calls are given as the source filed them. No cut-off for these calls is given here.
# Legend:
# A549 [1] = assay: Phototoxicity against human A549 cells incubated for 24 hrs followed by exposure to visible-light for 10 mins measured after 24 hrs by WST assay; assay type: functional, cell-based
# A549 [2] = assay: Phototoxicity against human A549 cells incubated for 24 hrs followed by UV-irradiation for 10 mins measured after 24 hrs by WST assay; assay type: functional, cell-based
# DNA [3] = assay: Binding affinity to calf thymus DNA; assay type: nucleic-acid assay; conditions: Bos taurus
# A549 [4] = assay: Ratio of TMPyP IC50 to compound IC50 for human A549 cells incubated for 24 hrs followed by exposure to visible-light for 10 mins measured after 24 hrs by WST assay; assay type: functional
# Escherichia coli [5] = assay: Induction of Escherichia coli pBR322 DNA cleavage assessed as conversion of supercoiled form to nicked circular form at 50 uM incubated for 30 mins followed by exposure to visible-light for 1 to 60 mins by agarose gel electrophoretic analysis
# Escherichia coli [6] = assay: Induction of Escherichia coli pBR322 DNA cleavage assessed as conversion of supercoiled form to nicked circular form at 50 uM incubated for 30 mins followed by UV-irradiation for 1 to 60 mins by agarose gel electrophoretic analysis
# DNA [7] = assay: Binding affinity to calf thymus DNA assessed as blue shift at 2 uM by fluorescence spectroscopic analysis; assay type: nucleic-acid assay; conditions: Bos taurus
# DNA [8] = assay: Binding affinity to calf thymus DNA assessed as decrease in fluorescence intensity at 2 uM by spectroscopic analysis; assay type: nucleic-acid assay; conditions: Bos taurus
# DNA [9] = assay: Binding affinity to calf thymus DNA assessed as hypochromicity at 2 uM by UV-vis absorption titration relative to control; assay type: nucleic-acid assay; conditions: Bos taurus
# DNA [10] = assay: Binding affinity to calf thymus DNA assessed as red shift in Soret region at 2 uM by UV-vis absorption titration; assay type: nucleic-acid assay; conditions: Bos taurus
# [11] = Homo sapiens, A549, light or radiation study
SMILES,IC50 (A549 [1]; [11]) [nM],IC50 (A549 [2]; [11]) [nM],K (DNA [3]),Ratio IC50 (A549 [4]),IC50 (A549 [1]; a549) [nM],IC50 (A549 [2]; a549) [nM],Activity (Escherichia coli [5]),Activity (Escherichia coli [6]),Activity (DNA [7]),Activity (DNA [8]),Activity (DNA [9]) [%],Activity (DNA [10])
C[n+]1ccc(-c2c3nc(c(-c4cc[n+](C)cc4)c4ccc([nH]4)c(-c4cc[n+](C)cc4)c4ccc([nH]4)c(-c4cc[n+](C)cc4)c4nc2C=C4)C=C3)cc1 [TMPYP4],300,1240,2.5 ×10⁶ /M,,,,,,,,,
O=C(Nc1ccc(-c2c3nc(c(-c4ccncc4)c4ccc([nH]4)c(-c4ccncc4)c4nc(c(-c5ccncc5)c5ccc2[nH]5)C=C4)C=C3)cc1)c1cnc2ccccc2n1,180,170,,,,,,,,,,
C1=Cc2nc1c(-c1ccccc1)c1nc(c(-c3ccccc3)c3ccc([nH]3)c(-c3ccccc3)c3ccc([nH]3)c2-c2ccccc2)C=C1 [TETRAPHENYLPORPHYRIN],> 20000,> 20000,,,,,,,,,,
C[n+]1ccc(-c2c3nc(c(-c4cc[n+](C)cc4)c4ccc([nH]4)c(-c4cc[n+](C)cc4)c4nc(c(-c5ccc(NC(=O)c6cnc7ccccc7n6)cc5)c5ccc2[nH]5)C=C4)C=C3)cc1.[I-].[I-].[I-],,,1.26 ×10⁶ /M,5,60,160,Active,Active,Active,Active,39,Active
O=C(Nc1ccc(-c2c3nc(c(-c4ccccc4)c4ccc([nH]4)c(-c4ccccc4)c4nc(c(-c5ccccc5)c5ccc2[nH]5)C=C4)C=C3)cc1)c1cnc2ccccc2n1,> 20000,> 20000,1.98 ×10⁵ /M,,,,inactive,Active,,,,
